Laboratory results taken from patent publication US20220127565A1, “A Self-Assembling Short Amphiphilic Peptide And Related Methods And Uses” (Agency for Science, Technology and Research, priority 2019, published 2022).
Residues, ends and D or L forms follow the SMILES beside them.

Legend:
[1] = TGA degradation temperature; format: physicochemical
[2] = Gelation / hydrogel formation, minimum gelation concentration in water, buffered saline or PBS; format: physicochemical; conditions: for Self-assembly into hydrogels / scaffolds: aqueous conditions; for Self-assembly into hydrogels / scaffolds / Minimum gelation concentration in buffered saline: buffered saline
Method: Preparation of Hydrogels.
Lyophilized peptide powder was dissolved in milliQ water and mixed for 30 seconds by vortexing to obtain a homogenous solution. 10% volume of 10-times phosphate-buffered saline was subsequently added and mixed by pipetting. Gelation occurred between seconds (PBS) to overnight (water), depending on the peptide concentration and solution used.

[3] = Thixotropy of hydrogel, recovery after vortexing; format: physicochemical; conditions: hydrogel disturbed by vortexing
[4] = Circular dichroism spectroscopy, secondary structure transitions with increasing peptide concentration; format: physicochemical; conditions: for Secondary structure transitions: Table 1; for Secondary structure / conformational transitions (circular dichroism): increasing peptide concentration
Method: Circular Dichroism Spectroscopy.
CD spectra were collected with a Jasco CD spectrophotometer fitted with a temperature controller, using quartz suprasil cuvettes with an optical path length of 1 mm. All samples were prepared in milIQ water and equilibrated for an hour at room temperature before measurement. Data acquisition was performed for wavelength range from 190-260 nm with a spectral bandwidth of 1.0 nm. All spectra were baseline-corrected using milliQ water as baseline. The mean residue ellipticity (MRE) was calculated as follows:
[θ]=θ/(10·N·c·l) where […] represents the ellipticity in millidegrees, N the number of amino acid residues, c the molar concentration in mol·L-1, and I the cell path length in cm.

[5] = Gelation in dimethylsulfoxide; format: physicochemical
[6] = system: 8 cm×8 cm excisional full thickness wound; experiment: Porcine wound healing study of peptide hydrogel wound dressings; format: in vivo; conditions: hydrogel applied weekly for 6 weeks
Method: A porcine wound healing study was performed to evaluate the peptide hydrogels for wound healing applications. An 8 cm×8 cm excisional full thickness wound was created on the back of the animal, and three of the peptide hydrogels were applied using a polydimethylsiloxane mould. Wound dressing changes were carried out weekly for 6 weeks, with application of fresh hydrogel.

[7] = Rheology, storage modulus of hydrogels; format: physicochemical; conditions: hydrogels prepared in buffered saline
Method: Hydrogel samples were prepared in polydimethysiloxane moulds to obtain approximately 1 mm thick, 8 mm diameter discs. Dynamic strain and oscillatory frequency sweep experiments were carried out using the ARES-G2 Rheometer (TA Instruments, Piscataway, N.J.) with 8 mm titanium parallel plate geometry. The readings of 3 samples were averaged for each condition.

[8] = system: embryonic stem cells H1 and H9; experiment: 3D culture of pluripotent stem cells encapsulated in hydrogel droplets; format: cell-based, human; conditions: for Colony formation of single cell suspensions in hydrogel: H1 and H9, cell encapsulation densities exceeding 5×10^6 cells/mL
Method: (§1) 3D Encapsulation of Stem Cells.
(§2) H1 embryonic stem cells cultured on Matrigel were dissociated into single cells using TrypLE Express, and re-suspended in 50% mTESR in PBS at an approximate concentration of 4×10^6, 10^7 or 1.6×10^7 cells/mL. 0.5 μL of cells was injected into a droplet of 2 μL 10 mg/mL peptide solution. Warmed culture media (mTESR) containing ROCK inhibitor Y-27632 was added for the first day and replaced by either mTESR or endoderm differentiation media subsequently. The endoderm differentiation protocol was adapted from Spence et al (2011). Briefly, the encapsulated cells were exposed to RPMI media containing 100 ng/mL Activin A, 2 mM glutamax, 1% penicillin-streptomycin and increasing concentrations of defined fetal bovine serum. After 3 days, the hydrogel droplets were washed with RPMI and incubated in hindgut differentiation media (RPMI media containing 1% defined fetal bovine serum, 1% penicillin-streptomycin, 2 mM glutamax, 500 ng/mL FGF4 and 500 ng/mL Wnt3A.
Immunohistochemistry and Confocal Microscopy Imaging.
Cell samples were fixed in 4% paraformaldehyde for 15 minutes and permeabilized in 0.01% Triton-X for 10 minutes. The encapsulated human embryonic stem cells were incubated at 4° C. overnight in 5% Bovine-Serum Albumin containing primary antibodies. The corresponding secondary antibodies and DAPI were applied for 90 minutes before the samples were imaged. Confocal microscopy was performed using a Zeiss LSM 510 microscope at the Institute of Medical Biology Microscopy Unit (A*STAR, Singapore).

H9 embryonic stem cells = experiment: 3D endoderm / hindgut differentiation of encapsulated stem cells (H9); format: cell-based, human; conditions: H9 in 8 mg/mL hydrogel droplets
[9] = system: H1 human embryonic stem cells; experiment: Chromosomal aberrations after 5 passages of 3D culture; format: cell-based
Method: as §1, §2

## CC[C@H](C)[C@H](NC(=O)[C@@H](NC(=O)[C@H](CC(=O)O)NC(C)=O)C(C)C)C(N)=O [Ac-DVI-NH2] (Ac-Asp-Val-Ile-NH2)
[1]
  TGA Degradation Temperature: 321.5 °C
[2]
  [Peptide] min, PBS: 9.9 mg/mL
  Self-assembly into hydrogels / scaffolds: self-assemble into nanofibrous scaffolds
  [Peptide] min, water: 11.6 mg/mL
[3]
  Standing time to return to gel state after vortexing: 10 min

## CC[C@H](C)[C@H](NC(C)=O)C(=O)N[C@H](C(=O)N[C@@H](CC(=O)O)C(=O)O)C(C)C [Ac-IVD, reference compound] (Ac-Ile-Val-Asp-OH; C-terminus assumed)
[1]
  TGA Degradation Temperature: 323.6 °C
[2]
  [Peptide] min, PBS: 19.2 mg/mL
  [Peptide] min, water: 40.8 mg/mL

## CC[C@H](C)[C@H](NC(C)=O)C(=O)N[C@H](C(=O)N[C@@H](CC(=O)O)C(N)=O)C(C)C [Ac-IVD-NH2, reference compound] (Ac-Ile-Val-Asp-NH2)
[1]
  TGA Degradation Temperature: 328.5 °C
[2]
  [Peptide] min, PBS: 33.9 mg/mL
  [Peptide] min, water: 44.9 mg/mL

## CC[C@H](C)[C@H](NC(C)=O)C(=O)N[C@H](C(=O)N[C@@H](CCCCN)C(N)=O)C(C)C [Ac-IVK-NH2, reference compound] (Ac-Ile-Val-Lys-NH2)
[2]
  Minimum gelation concentration in buffered saline: >30 mg/mL
[4]
  Secondary structure transitions: Yes

## CC[C@H](C)[C@H](NC(=O)[C@@H](NC(=O)[C@H](CCCCN)NC(C)=O)C(C)C)C(N)=O [Ac-KVI-NH2] (Ac-Lys-Val-Ile-NH2)
[2]
  Minimum gelation concentration in buffered saline: >30 mg/mL
[4]
  Secondary structure transitions: Yes
  Secondary structure / conformational transitions (circular dichroism): same secondary structure transitions as their parent sequences

## Ac-GAVLI-NH2 [Ac-GAVLI-NH2]
[5]
  Gel formation in dimethylsulfoxide: thixotrophic gels

## Ac-HGAVIA-NH2 [Ac-HGAVIA-NH2]
[5]
  Gel formation in dimethylsulfoxide: thixotrophic gels

## Ac-HGAVLI-NH2 [Ac-HGAVLI-NH2]
[5]
  Gel formation in dimethylsulfoxide: thixotrophic gels
[6]
  Reduction of wound size: effective reduction of wound size

## Ac-ILVAGK-NH2 [Ac-ILVAGK-NH2, reference compound]
[7]
  Storage moduli of hydrogels: ~10 kPa
[8]
  Colony formation of single cell suspensions in hydrogel: several colonies developed
[2]
  Minimum gelation concentration in buffered saline: 3 mg/mL
[4]
  Secondary structure transitions: Yes

## Ac-KGAVLI-NH2 [Ac-KGAVLI-NH2]
[8]; 2×10^6 cells/mL
  Colony formation at lower cell seeding densities: formation of several colonies within a single droplet
[8]
  Colony formation of single cell suspensions in hydrogel: more likely to aggregate into a single colony
[8]; cultured in defined mTESR media
  Pluripotency, staining of Oct4 and Tral-60 biomarkers: retained their pluripotency
[8]; day 7, bioprinted hydrogel droplets encapsulating cells
  Retention of the expanding colonies: higher retention of the expanding colonies
[8]; synthetic 3D stem cell culture substrate, compared to Gen1 analog
  Cell migration and consistency in generating single colonies: enhanced cell migration and better consistency in generating single colonies
H9 embryonic stem cells; day 9
  Expression of hindgut biomarker Cdx2: expression of hindgut biomarker Cdx2 was observed
H9 embryonic stem cells; definitive endoderm differentiation
  Cells expressing Sox17, flow cytometry: 90%
[2]
  Minimum gelation concentration in buffered saline: 3 mg/mL
[6]
  Reduction of wound size: effective reduction of wound size
[9]
  Mutagenicity, chromosomal aberrations: non-mutagenic
[4]
  Secondary structure transitions: Yes
  Secondary structure / conformational transitions (circular dichroism): same secondary structure transitions as their parent sequences

## Ac-SGAVIA-NH2 [Ac-SGAVIA-NH2]
[5]
  Gel formation in dimethylsulfoxide: thixotrophic gels

## H-KGAVLI-NH2 [KGAVLI-NH2]
[2]
  Self-assembly into hydrogels / scaffolds: forms hydrogels in buffered saline
  Minimum gelation concentration in buffered saline: 20 mg/mL
[4]
  Secondary structure transitions: Yes
  Secondary structure / conformational transitions (circular dichroism): same conformational transitions

## H-SGAVLI-NH2 [SGAVLI-NH2]
[5]
  Gel formation in dimethylsulfoxide: thixotrophic gels
[6]
  Reduction of wound size: effective reduction of wound size
